The results in this text go back to PubChem BioAssay (NCI).

The structures appear in SMILES notation.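 Method: 48-hour compound exposure of cells in 96-well plates, five concentrations, linear interpolation of endpoints. Here, GI50 denotes the concentration required for 50% inhibition of growth. TGI marks complete inhibition of growth.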

Common to all, as to experiment: growth of human tumour cells (NCI), 48 h
Test [1] concerns TK-10 renal.
Test [2] has as its system A549 NSCLC.
For test [3], the system named is SF-539 CNS.
In test [4] the test system is ACHN renal.
Test [5] concerns MDA-MB-231 breast.
In test [6] the test system is EKVX NSCLC.
In test [7] the test system is T-47D breast.
The test system of test [8] is CCRF-CEM leukemia.
Test [9] concerns RPMI-8226 leukemia.
Test [10] has as its system SK-MEL-28 melanoma.

`O=S(=O)(c1ccc(Cl)cc1)C(Cl)(Cl)Cl`: the GI50 was 9.56 µM in test [1]; 3.46 µM in test [2]; 3.17 µM in test [3]; 1.43 µM in test [4]; 3.85 µM in test [5]; 4.68 µM in test [6]. Besides, the GI50 in test [7] is 1.39 µM; in test [8], 1.62 µM; in [9], 3.35 µM; in [10], 4.47 µM. The TGI in test [1] was above 75.1 µM; in [2], above 50 µM; in test [3], 29 µM; in test [4], above 100 µM; in [5], 23 µM; in test [6] it was above 21.4 µM. Further, the TGI is above 33.1 µM in test [7], above 32.6 µM in [8], above 52.9 µM in test [9] and 24 µM in test [10].
As to `CO/N=C(\COc1ccc2c(c1)[nH]c1ccccc12)c1ccc(F)cc1`, the GI50 in test [1] is 25.9 µM; in [2], 29.6 µM; in test [3], above 100 µM; in test [4], 35.7 µM; in test [5], 20.1 µM; in test [6], 65.9 µM. For the same molecule, the GI50 was above 100 µM in test [7], 22.6 µM in [8], 43.9 µM in test [9] and above 100 µM in [10]. Also, the TGI in test [1], in test [2], in test [3], in test [4], in test [5] and in test [6] was above 100 µM each time. The TGI is above 100 µM in test [7], 53.9 µM in test [8], above 100 µM in test [9] and above 100 µM in [10].
Take `COc1cc2c3c(n(C)c(=O)c2cc1OC)-c1cc2c(cc1/C3=C\CCCCN1C(=O)c3ccccc3C1=O)OCO2`: the GI50 in [1] was 1.11 µM; in test [2] it was 7.03 µM; in [4] it was 1.8 µM; in test [5] it was 13.3 µM; in [8], 9.71 µM; in test [9], 8.5 µM. For the same molecule, in test [10], the GI50 was above 100 µM. The TGI in [1] was 29.1 µM; in [2], 27.9 µM; in test [4] it was 10.9 µM; in test [5] it was 38.3 µM; in test [8], 43.7 µM; in test [9] it was above 100 µM. The TGI in test [10] is above 100 µM.
Regarding `COc1ccc2c(c1)N(CCO)C1=C(C(=O)OC1)C2c1cccc(F)c1` (configuration not stated), the GI50 in test [1] is 10.3 µM; in test [2] it was 0.746 µM; in test [3], 0.332 µM; in test [4], 0.386 µM; in test [5], 1.1 µM; in [6] it was 1.34 µM. The GI50 in test [7] was 1.95 µM; in [8] it was 0.43 µM; in [9], 0.629 µM; in [10], 5.59 µM. Also, the TGI in test [1] is above 50 µM; in test [2], above 50 µM; in test [3], 3.19 µM; in [4] it was above 50 µM; in test [5] it was above 19.3 µM; in [6] it was above 50 µM. In addition, the TGI in [7], in test [8], in test [9] and in [10] was above 50 µM each time.
In the case of `CCc1ccc2c(c1)N(CCO)C1=C(C(=O)OC1)C2c1cccc(Br)c1` (configuration not stated), the GI50 is 1.81 µM in test [1]; 0.655 µM in test [2]; 0.458 µM in test [3]; 1.61 µM in [4]; 2.43 µM in [5]; 2.45 µM in test [6]. For the same molecule, the GI50 is 0.54 µM in test [7], 0.351 µM in [8], 0.983 µM in [9] and 0.473 µM in test [10]. Besides, the TGI in test [1] amounted to 18.4 µM; in [2], 14.8 µM; in [3], 10.1 µM; in [4], 20.4 µM; in [5], 15.7 µM; in test [6], 20.6 µM. The TGI was 19.6 µM in test [7], 15.6 µM in test [8], 33.5 µM in test [9] and 14.3 µM in test [10].
Consider `O=C1c2cccnc2C(=O)c2c1c(C(=O)NCCCN1CCCCC1)c1ccccn21`, for which the GI50 in [2] was 1.25 µM; in test [3], 1.47 µM; in test [4], 0.464 µM; in test [5] it was 0.562 µM; in test [6], 1.37 µM; in test [7], 1.59 µM. The GI50 is 3.26 µM in [8], 3.43 µM in test [9] and 3.15 µM in test [10]. For the same molecule, the TGI in [2] was found to be 3.8 µM; in test [3], 3.07 µM; in test [4], 2.84 µM; in test [5], 7.23 µM; in test [6], 3.2 µM; in test [7] it was 4.34 µM. In addition, the TGI in test [8] was above 100 µM; in test [9], above 100 µM; in [10], 10.5 µM.
Consider `NNC(=O)CS(=O)(=O)Nc1ncccn1`, for which the TGI in test [1], in test [2], in [3], in test [4], in [5] and in [6] was above 100 µM each time. Further, the TGI in test [7], in [9] and in test [10] was above 100 µM each time.
For the molecule `O=C1/C(=C/c2ccccc2[N+](=O)[O-])Cc2ccccc21`, the GI50 is 3.14 µM in [1]; 2.5 µM in [2]; 2.15 µM in test [3]; 1.87 µM in test [4]; 1.7 µM in test [5]; 2.22 µM in [7]. Moreover, the GI50 in test [9] is 2.44 µM; in [10], 2.1 µM. Besides, the TGI in test [1] is 7.1 µM; in [2], 11 µM; in test [3], 5.94 µM; in test [4] it was 4.87 µM; in test [5], 6.2 µM; in test [7], above 100 µM. The TGI worked out at 7.84 µM in test [9] and 4.2 µM in test [10].
